Measured values published in patent US20250206761A1, “HALOINDOLE MACROCYCLIC COMPOUNDS FOR THE TREATMENT OF CANCER” (Hoffmann-La Roche Inc., priority 2022, published 2025).

What was measured:
[1] = biological target: KRAS G12V binding to BRAF (Homo sapiens (Human), UniProt P01116+P62937, G12V); assay: KRAS-BRAF with CYPA (500 nM) interaction assay (TR-FRET), G12V; format: biochemical
Method: In this example, TR-FRET was also used to measure the compound or compound-CYPA dependent disruption of the KRAS G12C-BRAF complex. This protocol was also used to measure disruption of KRAS G12D or KRAS G12V binding to BRAF by a compound of the invention, respectively. In assay buffer containing 25 mM HEPES PH=7.4 (4-(2-hydroxyethyl)-1-piperazineethanesulfonic acid, Thermo, 15630080), 0.002% Tween20, 0.1% BSA, 100 mM NaCl, 5 mM MgCl2, 10 μM GMPPNP (Guanosine 5′-[β,γ-imido]triphosphate trisodium salt hydrate, Sigma, G0635), […], GMPPNP loaded 6His-KRAS proteins, and […], 6.25 nM and 1 nM, respectively. Compound was present in plate wells as a 16-point 3-fold dilution series starting at a final concentration of 10 μM and incubated for 3 hours. A mixture of MAb Anti-6His-XL665 (Cisbio, 61HISXLB) and Mab anti-GST-TB cryptate (Cisbio, 61GSTTLB) was then added at a final concentration of 6.67 nM and 0.21 nM, respectively, and the plate was incubated for an additional 1.5 hours. TR-FRET signal was read on a PHERstar FSX microplate reader (Ex320 nm, Em 665/615 nm). Compounds that facilitate disruption of the KRAS-BRAF complex were identified as those eliciting a decrease in the TR-FRET ratio relative to DMSO control wells.

[2] = tested on: NCI-H358 (ATCC-CRL5807) cells; assay: Cell viability assay, G12C (NCI-H358); format: cell-based, human; settings: Homo sapiens; KRAS cell viability, NCI-H358, 72 hrs, Cell Counting Kit-8
Method: (§1) The purpose of this cellular assay was to determine the effects of test compounds on the proliferation of human cancer cell lines NCI-H358 (ATCC-CRL5807) cells, AGS (ATCC-CRL-1739) cells, SW620 (ATCC-CCL-227) over a 3-day treatment period by quantifying the amount of NADPH present at endpoint using Cell Counting Kit-8.
(§2) Cells were seeded at 5,000 cells/well (NCI-H358), 2,000 cells/well (AGS) 2,000 cells/well (SW620) in 96-well assay plates (Corning-3699) and incubated overnight. On the day of the assay, diluted compounds were then added in a final concentration of 0.5% DMSO. After 72 hrs incubation, a tenth of the volume of cell counting kit 8 (Dnjindo-CK04) was added into each well. Read the signal (OD450 minus OD650) using EnVision after 2 hrs incubation. IC50 was determined by fitting a 4-parameter sigmoidal concentration response model.

[3] = tested on: phosphorylation of ERK, KRAS G12C in NCJ-H358 cells; assay: pERK inhibition assay, KRAS G12C; format: cell-based, human; settings: Homo sapiens, 4 hours
Method: (§3) This assay is to measure the ability of test compounds in inhibiting the phosphorylation of ERK, the downstream signaling of KRAS G12C in NCJ-H358 cells, KRAS G12D in AGS cells, and KRAS G12V in SW620. NCJ-H358 (ATCC-CRL5807) cells, AGS (ATCC-CRL-1739) cells, SW620 (ATCC-CCL-227) cells were all grown and maintained using RPMI-1640 medium (Thermo Fisher Scientific) with 10% fetal bovine serum and 1% penicillin/streptomycin. On the day prior to compound addition, cells were plated in tissue culture-treated 96 well plates (Corning-3699) at a density of 30,000 cell/well, 20,000 cell/well, 30,000 cell/well for NCJ-H358, AGS and SW620 respectively, and allowed for attachment overnight. Diluted compounds were then added in a final concentration of 0.5% DMSO. After 4 hours of incubation, the medium was removed, 100 μL of 4% formaldehyde was added, and the assay plates were incubated at room temperature for 20 minutes. The plates were then washed once with phosphate buffered saline (PBS), and permeabilized with 100 μL of chilled methanol for 10 minutes. Non-specific antibody binding to the plates was blocked using 50 μL 1×BSA blocking buffer (Thermo-37520, 10-fold dilution by Phosphate-Buffered Saline Tween (PBST) for at least 1 hour at room temperature.
(§4) The amount of phosphor-ERK was determined using an antibody specific for phosphorylated form of ERK. Primary antibody (pERK, CST-4370, Cell Signaling Technology) was diluted 1:300 in blocking buffer, with 50 μL aliquoted to each well, and incubated overnight at 4′° C. Cells was washed five times for 5 minutes with PBST. Secondary antibody ([…] anti-rabbit IgG, CST-7074, Cell Signaling Technology) was diluted 1:1000 in blocking buffer, and 50 μL was added to each well and incubated 1-2 hrs at room temperature. Cells was washed 5 times for 5 minutes with PBST, 100 μL TMB ELISA substrate (abcam-ab171523) were added and gently shake for 20 minutes. 50 μL stop solution (abcam-ab171529) were added, and then read the signal (OD450) by EnVision.
(§5) IC50 was determined by fitting a 4-parameter sigmoidal concentration response model.

SW620 (ATCC-CCL-227) = assay: Cell viability assay, G12V (SW620); format: cell-based, human; settings: Homo sapiens, SW-620; KRAS cell viability, SW620, 72 hrs, Cell Counting Kit-8
Method: as §1, §2

[4] = biological target: KRAS G12D binding to BRAF (Homo sapiens (Human), UniProt P01116+P62937, G12D); assay: KRAS-BRAF with CYPA (500 nM) interaction assay (TR-FRET), G12D; format: biochemical
Chain of KRAS G12D binding to BRAF (P01116-2 other isoform, or with tags, fused parts or gaps G12D): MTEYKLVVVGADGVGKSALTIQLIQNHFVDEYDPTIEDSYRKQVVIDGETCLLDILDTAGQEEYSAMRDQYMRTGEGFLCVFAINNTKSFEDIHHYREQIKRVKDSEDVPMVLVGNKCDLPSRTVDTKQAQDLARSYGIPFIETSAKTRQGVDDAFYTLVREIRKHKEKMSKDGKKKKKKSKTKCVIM
Chain of KRAS G12D binding to BRAF (P62937 whole entry): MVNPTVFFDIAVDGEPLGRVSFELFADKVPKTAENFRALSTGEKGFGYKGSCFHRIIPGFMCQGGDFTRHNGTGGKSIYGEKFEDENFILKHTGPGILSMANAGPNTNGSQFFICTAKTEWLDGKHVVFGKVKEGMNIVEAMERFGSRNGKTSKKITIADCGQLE
Method: (§6) In this example, TR-FRET was also used to measure the compound or compound-CYPA dependent disruption of the KRAS G12C-BRAF complex. This protocol was also used to measure disruption of KRAS G12D or KRAS G12V binding to BRAF by a compound of the invention, respectively. In assay buffer containing 25 mM HEPES PH=7.4 (4-(2-hydroxyethyl)-1-piperazineethanesulfonic acid, Thermo, 15630080), 0.002% Tween20, 0.1% BSA, 100 mM NaCl, 5 mM MgCl2, 10 μM GMPPNP (Guanosine 5′-[β,γ-imido]triphosphate trisodium salt hydrate, Sigma, G0635), […] 384-well assay plate at final concentrations of 50 nM, 6.25 nM and 1 nM, respectively. Compound was present in plate wells as a 16-point 3-fold dilution series starting at a final concentration of 10 μM and incubated for 3 hours. A mixture of MAb Anti-6His-XL665 (Cisbio, 61HISXLB) and Mab anti-GST-TB cryptate (Cisbio, 61GSTTLB) was then added at a final concentration of 6.67 nM and 0.21 nM, respectively, and the plate was incubated for an additional 1.5 hours. TR-FRET signal was read on a PHERstar FSX microplate reader (Ex320 nm, Em 665/615 nm). Compounds that facilitate disruption of the KRAS-BRAF complex were identified as those eliciting a decrease in the TR-FRET ratio relative to DMSO control wells.

[5] = tested on: AGS (ATCC-CRL-1739) cells; assay: Cell viability assay, G12D (AGS); format: cell-based, human; settings: Homo sapiens, KRAS cell viability, 72 hrs, Cell Counting Kit-8
Method: as §1, §2

KRAS G12C-BRAF complex = KRAS G12C-BRAF complex (Homo sapiens (Human), UniProt P01116+P62937, G12C); assay: KRAS-BRAF with CYPA (500 nM) interaction assay (TR-FRET), G12C; format: biochemical
Chain of KRAS G12C-BRAF complex (P01116-2 other isoform, or with tags, fused parts or gaps G12C): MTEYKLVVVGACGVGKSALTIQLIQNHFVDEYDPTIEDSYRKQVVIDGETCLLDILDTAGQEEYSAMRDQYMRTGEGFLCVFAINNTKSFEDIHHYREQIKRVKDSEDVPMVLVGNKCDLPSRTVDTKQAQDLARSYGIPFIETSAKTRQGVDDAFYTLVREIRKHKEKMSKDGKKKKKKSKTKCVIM
Chain of KRAS G12C-BRAF complex (P62937 whole entry): as the sequence (P62937 whole entry) above
Method: as §6

[6] = tested on: phosphorylation of ERK, KRAS G12V in SW620; assay: pERK inhibition assay, KRAS G12V; format: cell-based, human; settings: Homo sapiens, SW-620, SW620, 4 hours
Method: as §3, §4, §5

Chain of KRAS G12V binding to BRAF (P01116-2 other isoform, or with tags, fused parts or gaps G12V): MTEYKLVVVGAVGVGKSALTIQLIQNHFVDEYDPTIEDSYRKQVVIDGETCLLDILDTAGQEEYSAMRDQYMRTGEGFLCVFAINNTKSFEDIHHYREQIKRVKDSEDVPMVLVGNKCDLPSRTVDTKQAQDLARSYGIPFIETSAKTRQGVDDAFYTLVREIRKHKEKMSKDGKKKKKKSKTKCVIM
Chain of KRAS G12V binding to BRAF (P62937 whole entry): as the sequence (P62937 whole entry) above

| SMILES | IC50 [1] [nM] | IC50 [2] [nM] | IC50 [3] [nM] | IC50 (SW620 (ATCC-CCL-227)) [nM] | IC50 [4] [nM] | IC50 [5] [nM] | IC50 (KRAS G12C-BRAF complex) [nM] | IC50 [6] [nM] |
| --- | --- | --- | --- | --- | --- | --- | --- | --- |
| CO[C@@H](C)c1ncc(N2CCN(CC(F)(F)F)CC2)cc1-c1c2c3cc(c(F)cc3n1CC(F)(F)F)-c1csc(n1)C[C@H](NC(=O)[C@H](C(C)C)N1CC[C@@]3(CCN(C(=O)[C@H](F)Cl)C3)C1=O)C(=O)N1CCC[C@H](N1)C(=O)OCC(C)(C)C2 (atropisomer, axis not shown) [Example 43, (2S)-2-[(5R)-7-[(2R)-2-chloro-2-fluoro-acetyl]-1-oxo-2,7-diazaspiro[4.4]nonan-2-yl]-N-[(7S,13S)-24-fluoro-20-[2-[(1S)-1-methoxyethyl]-5-[4-(2,2,2-trifluoroethyl)piperazin-1-yl]-3-pyridyl]-17,17-dimethyl-8,14-dioxo-21-(2,2,2-trifluoroethyl)-15-oxa-4-thia-9,21,27,28-tetrazapentacyclo[17.5.2.1^2,5.1^9,13.0^22,26]octacosa-1(25),2,5(28),19,22(26),23-hexaen-7-yl]-3-methyl-butanamide] | 1690 | < 1 | 6 | 171 | 2200 | 67 | 22 | 44 |
| CCn1c(-c2cc(N3CCN(C)CC3)cnc2[C@H](C)OC)c2c3cc(c(F)cc31)-c1csc(n1)C[C@H](NC(=O)[C@H](C(C)C)N(C)C(=O)C1(F)CCN(C(=O)[C@H](F)Cl)CC1)C(=O)N1CCC[C@H](N1)C(=O)OCC(C)(C)C2 (atropisomer, axis not shown; (M)) [Example 34, 1-[(2R)-2-chloro-2-fluoro-acetyl]-N-[(1S)-1-[[(7S,13S)-21-ethyl-24-fluoro-(20M)-20-[2-[(1S)-1-methoxyethyl]-5-(4-methylpiperazin-1-yl)-3-pyridyl]-17,17-dimethyl-8,14-dioxo-15-oxa-4-thia-9,21,27,28-tetrazapentacyclo[17.5.2.1^2,5.1^9,13.0^22,26]octacosa-1(25),2,5(28),19,22(26),23-hexaen-7-yl]carbamoyl]-2-methyl-propyl]-4-fluoro-N-methyl-piperidine-4-carboxamide] | 724 | < 1 | 2 | 40 | 909 | 43 | 47 | 12 |
| CCn1c(-c2cc(N3CCN(CC(F)(F)F)CC3)cnc2[C@H](C)OC)c2c3cc(c(F)cc31)-c1csc(n1)C[C@H](NC(=O)[C@H](C(C)C)N1CC[C@@]3(CCN(C(=O)[C@H](F)Cl)C3)C1=O)C(=O)N1CCC[C@H](N1)C(=O)OCC(C)(C)C2 (atropisomer, axis not shown; (M)) [Example 35, (2S)-2-[(5R)-7-[(2R)-2-chloro-2-fluoro-acetyl]-1-oxo-2,7-diazaspiro[4.4]nonan-2-yl]-N-[(7S,13S)-21-ethyl-24-fluoro-(20M)-20-[2-[(1S)-1-methoxyethyl]-5-[4-(2,2,2-trifluoroethyl)piperazin-1-yl]-3-pyridyl]-17,17-dimethyl-8,14-dioxo-15-oxa-4-thia-9,21,27,28-tetrazapentacyclo[17.5.2.1^2,5.1^9,13.0^22,26]octacosa-1(25),2,5(28),19,22(26),23-hexaen-7-yl]-3-methyl-butanamide] | > 10000 | < 1 | 3 | 3530 | 3220 | 69 | 23 | 50 |
| CCn1c(-c2cc(N3CCN(C)CC3)cnc2[C@H](C)OC)c2c3cc(c(F)cc31)-c1csc(n1)C[C@H](NC(=O)[C@H](C(C)C)N1CCCC3(CCN(C(=O)[C@H](F)Cl)CC3)C1=O)C(=O)N1CCC[C@H](N1)C(=O)OCC(C)(C)C2 (atropisomer, axis not shown; (M)) [Example 36, (2S)-2-[9-[(2R)-2-chloro-2-fluoro-acetyl]-1-oxo-2,9-diazaspiro[5.5]undecan-2-yl]-N-[(7S,13S)-21-ethyl-24-fluoro-(20M)-20-[2-[(1S)-1-methoxyethyl]-5-(4-methylpiperazin-1-yl)-3-pyridyl]-17,17-dimethyl-8,14-dioxo-15-oxa-4-thia-9,21,27,28-tetrazapentacyclo[17.5.2.1^2,5.1^9,13.0^22,26]octacosa-1(25),2,5(28),19,22(26),23-hexaen-7-yl]-3-methyl-butanamide] | > 10000 | < 1 | 3 | 132 | 3940 | 30 | 38 | 13 |
